The target of one assay is T1, human GPBAR1 receptor (Homo sapiens, UniProt Q8TDU6).
T1 construct: expressed in transfected cells
T1 sequence (Q8TDU6 1-330): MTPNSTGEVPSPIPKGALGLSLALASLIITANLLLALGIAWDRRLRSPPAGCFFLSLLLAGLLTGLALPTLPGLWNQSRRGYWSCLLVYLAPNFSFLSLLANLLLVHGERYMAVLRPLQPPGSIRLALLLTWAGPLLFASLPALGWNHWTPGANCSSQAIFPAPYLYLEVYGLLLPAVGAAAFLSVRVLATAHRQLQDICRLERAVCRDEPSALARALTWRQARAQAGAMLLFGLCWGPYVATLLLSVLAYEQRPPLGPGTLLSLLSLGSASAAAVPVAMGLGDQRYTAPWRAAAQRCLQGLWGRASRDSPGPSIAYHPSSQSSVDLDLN
Kind of assay: functional cAMP assay in CHO-dhfr(minus) cells expressing human GPBAR1 receptors. It counts as cell-based. The following applies: human EC50, functional cAMP assay, 30 min at 30° C. The gist of the method: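 Agonist cAMP read-out: stable GPBAR1 CHO-dhfr− clone, 30 min compound exposure at 30° C following 30 min IBMX (1 mM) preincubation in Krebs Ringer bicarbonate. Time-resolved energy-transfer detection gives EC50; parental CHO cells serve as counter-screen.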
`Cc1cc(/C(C[C@H](c2ccc(C3CCN(S(C)(=O)=O)CC3)cc2)c2ccc(Cl)cc2C)=N/O)ccn1` [Example 389, (R,E)-3-(4-Chloro-2-methylphenyl)-1-(2-methylpyridin-4-yl)-3-(4-(1-(methylsulfonyl)-piperidin-4-yl)phenyl)propan-1-one oxime] returned an EC50 of 33 nM.

`Cc1cc(Cl)ccc1C(C/C(=N\O)c1ccc(=O)n(C)c1)c1ccc(-c2ccc(C(=O)NCc3nnn[nH]3)cc2)cc1` (centres unmarked) [Example 230, (E)-N-((1H-tetrazol-5-yl)methyl)-4′-(1-(4-chloro-2-methylphenyl)-3-(hydroxyimino)-3-(1-methyl-6-oxo-1,6-dihydropyridin-3-yl)propyl)biphenyl-4-carboxamide]: the EC50 came to 18 nM.

In the case of `Cc1cc(/C(C[C@H](c2ccc(C3CCNCC3)cc2)c2ccccc2C)=N/O)ccn1` [Example 378, (R,E)-1-(2-Methylpyridin-4-yl)-3-(4-(piperidin-4-yl)phenyl)-3-o-tolylpropan-1-one oxime], the EC50 stood at 145 nM. Against the preceding compound, the EC50 is about 8.1-fold higher.

`[O-][n+]1ccc(/C(CC(c2ccccc2)c2ccc(Br)cc2)=N/O)cc1` (centres unmarked) [Example 15, (E)-3-(4-Bromo-phenyl)-1-(1-oxy-pyridin-4-yl)-3-phenyl-propan-1-one oxime] displayed an EC50 of 206 nM.

Take `Cc1cnc(F)cc1C(CC(c1ccccc1)c1ccccc1)=NO` (racemic) [Example 59, 1-(2-Fluoro-5-methyl-pyridin-4-yl)-3,3-diphenyl-propan-1-one oxime]: a half-maximal response (EC50) required 17 nM.

As for `Cc1cc(/C(C[C@H](c2ccc(N3CCC(C(=O)O)CC3)cc2)c2ccc(Cl)cc2C)=N/O)ccn1` [Example 284, 1-{4-[(R)-1-(4-Chloro-2-methyl-phenyl)-3-[(E)-hydroxyimino]-3-(2-methyl-pyridin-4-yl)-propyl]-phenyl}-piperidine-4-carboxylic acid], the EC50 was 2 nM.

`Cc1cc(/C(C[C@H](c2ccc(C3CCN(S(C)(=O)=O)CC3)cc2)c2ccccc2C)=N/O)ccn1` [Example 379, (R,E)-1-(2-methylpyridin-4-yl)-3-(4-(1-(methylsulfonyl)piperidin-4-yl)phenyl)-3-o-tolylpropan-1-one oxime] showed a half-maximal effective concentration (EC50) of 14 nM.

Consider `Cn1cc(/C(CC(c2ccc(S(C)(=O)=O)cc2)c2ccc(Cl)cc2F)=N/O)ccc1=O` (centres unmarked) [Example 314, (E)-5-(3-(4-chloro-2-fluorophenyl)-1-(hydroxyimino)-3-(4-(methylsulfonyl)phenyl)propyl)-1-methylpyridin-2(1H)-one], for which the EC50 was 84 nM.

Take `Cc1cc(/C(C[C@@H](c2ccccc2)c2ccc(Cl)cc2C)=N/O)ccn1` [Example 390, (S)-3-(4-Chloro-2-methyl-phenyl)-1-(2-methyl-pyridin-4-yl)-3-phenyl-propan-1-one oxime]: the EC50 came to 53 nM.

The compound `Cc1cc(/C(C[C@H](c2ccc(N3CCC(C(N)=O)CC3)cc2)c2ccccc2C)=N/O)ccn1` [Example 367, (R,E)-1-(4-(3-(Hydroxyimino)-3-(2-methylpyridin-4-yl)-1-o-tolylpropyl)phenyl)piperidine-4-carboxamide] displayed an EC50 of 1 nM.

The compound `Cc1cc(F)ccc1[C@H](C/C(=N\O)c1ccc(=O)n(C)c1)c1ccc(-c2ccc(S(N)(=O)=O)cc2)cc1` (single isomer, unassigned) [Example 406, (−)-4′-[1-(4-Fluoro-2-methyl-phenyl)-3-[(E)-hydroxyimino]-3-(1-methyl-6-oxo-1,6-dihydro-pyridin-3-yl)-propyl]-biphenyl-4-sulfonic acid amide] had an EC50 of 9 nM. Compared with the last compound, the EC50 is about 9-fold higher.

`ON=C(CC(c1ccccc1)c1ccccc1)c1cc(F)ncc1Cl` (racemic) [Example 58, 1-(5-Chloro-2-fluoro-pyridin-4-yl)-3,3-diphenyl-propan-1-one oxime] came in with an EC50 of 76 nM.

`Cc1ccccc1[C@H](C/C(Cc1ccccn1)=N\O)c1ccc(Br)cc1` [Example 263, (E,R)-4-(4-bromophenyl)-1-(pyridin-2-yl)-4-o-tolylbutan-2-one oxime]: the EC50 is 3210 nM. Against the preceding compound, the EC50 is about 42-fold higher.

`Cn1cc(/C(CC(c2ccc(Br)cc2F)C2CCCC2)=N/O)ccc1=O` (centres unmarked) [Example 192, 5-{3-(4-Bromo-2-fluoro-phenyl)-3-cyclopentyl-1-[(E)-hydroxyimino]-propyl}-1-methyl-1H-pyridin-2-one] gave an EC50 of 107 nM.

`Cc1ccccc1C(C/C(=N\O)c1ccc(=O)n(C)c1)c1ccc(C(=O)NCCCC(=O)O)cc1` (centres unmarked) [Example 213, 4-{4-[3-[(E)-Hydroxyimino]-3-(1-methyl-6-oxo-1,6-dihydro-pyridin-3-yl)-1-o-tolyl-propyl]-benzoylamino}-butyric acid] registered an EC50 of 1310 nM.

Compound `Cc1ccccc1[C@H](C/C(=N\O)c1cc(F)ncc1Cl)c1ccc(-c2ccc(C(=O)O)cc2)cc1` [Example 293, 4′-{(R)-3-(5-Chloro-2-fluoro-pyridin-4-yl)-3-[(E)-hydroxyimino]-1-o-tolyl-propyl}-biphenyl-4-carboxylic acid] gave an EC50 of 12 nM.

`Cc1ccccc1C(C/C(=N\O)c1cncc(Br)c1)c1cccc(Br)c1` (centres unmarked) [Example 123, (E)-3-(3-Bromo-phenyl)-1-(5-bromo-pyridin-3-yl)-3-o-tolyl-propan-1-one oxime] returned an EC50 of 4540 nM.

`CC(C)CC(C/C(=N\O)c1ccc(=O)n(C)c1)c1ccc(Br)cc1` (centres unmarked) [Example 170, 5-{3-(4-Bromo-phenyl)-1-[(E)-hydroxyimino]-5-methyl-hexyl}-1-methyl-1H-pyridin-2-one]: the EC50 turned out to be 453 nM.

Turning to `Cc1ccccc1C(C/C(=N\O)c1ccc(=O)n(C)c1)c1ccc(C(=O)N[C@H](C)CO)cc1` (stereo partly drawn) [Example 301, 4-((E)-3-(Hydroxyimino)-3-(1-methyl-6-oxo-1,6-dihydropyridin-3-yl)-1-o-tolylpropyl)-N-((R)-1-hydroxypropan-2-yl)benzamide], a half-maximal effect (EC50) was put at 4100 nM.

`Cc1cc(F)ccc1[C@@H](C/C(=N\O)c1ccc(=O)n(C)c1)c1ccc(-c2ccc(S(N)(=O)=O)cc2)cc1` (single isomer, unassigned) [Example 407, (+)-4′-[1-(4-Fluoro-2-methyl-phenyl)-3-[(E)-hydroxyimino]-3-(1-methyl-6-oxo-1,6-dihydro-pyridin-3-yl)-propyl]-biphenyl-4-sulfonic acid amide] came in with an EC50 of 12 nM. This EC50 is about 340-fold lower than that of the compound before.

Take `O=c1ccc(/C(CC(c2ccccc2)c2ccccc2)=N/O)c[nH]1` [Example 160, 5-{1-[(E)-Hydroxyimino]-3,3-diphenyl-propyl}-1H-pyridin-2-one]: it took 1310 nM to reach a half-maximal effect (EC50).

For `Cc1ccccc1C(CC(=NO)c1cc(Cl)ccc1Cl)c1ccc(Br)cc1` (racemic) [Example 49, 3-(4-Bromo-phenyl)-1-(2,5-dichloro-phenyl)-3-o-tolyl-propan-1-one oxime], the EC50 was 2910 nM. Against the preceding compound, the EC50 is about 2.2-fold higher.

For `COCc1nnc(-c2ccc([C@@H](C/C(=N\O)c3ccnc(C)c3)c3ccccc3C)cc2)o1` [Example 419, ((−), E)-3-[4-(5-Methoxymethyl-[1,3,4]oxadiazol-2-yl)-phenyl]-1-(2-methyl-pyridin-4-yl)-3-o-tolyl-propan-1-one oxime], the EC50 amounted to 8 nM.

With `Cc1cc(/C(CC(c2ccc(Br)cc2)c2ccc(Cl)cc2F)=N/O)ccn1` (centres unmarked) [Example 147, (E)-3-(4-Bromo-phenyl)-3-(4-chloro-2-fluoro-phenyl)-1-(2-methyl-pyridin-4-yl)-propan-1-one oxime], the EC50 worked out at 467 nM.

`CS(=O)(=O)c1ccc(-c2ccc(C(C/C(=N\O)c3ccncc3)c3ccccc3)cc2)cc1` (centres unmarked) [Example 20, (E)-3-(4′-Methanesulfonyl-biphenyl-4-yl)-3-phenyl-1-pyridin-4-yl-propan-1-one oxime] returned an EC50 of 66 nM.

Tested on in another assay: not given
Test: not given
The following applies: IV infusion (0.8 μmol/kg/min) for 90 min, obese and normal human subjects, over 24 hours; cited from earlier work.
Turning to PYY3-36, the reduced food intake was 33%.

(Values after patent publication US8765730B2 (Hoffmann-La Roche Inc, priority 2010, dated 2014).)
